Test results: patent US6592890B1, “Conveyance of anti-infective activity to wound dressings” (OxiBio, Inc., priority 1999, dated 2003)

Test system: C. albicans

With II [elemental iodine] the “elemental iodine concentrations required to affect microbial killing” value was under 0.01%.
